In the CheMixHub viscosity set:
Several values for one entry are separate records, joined by “and”; a condition that tells them apart may be missing. Equal values may be shown once.

Test: xn = mol fraction of the nth substance listed

Cc1ccccc1C(=O)O + O=C1CCCCCN1
101 kPa, x2 = 0.67
Conditions	viscosity [mPa·s]
303.2 K	108.3
313.1 K	58.33
323.1 K	34.26

O=C1CCCCCN1 + O=C(O)c1ccccc1
101 kPa, x1 = 0.5
Conditions	viscosity [mPa·s]
303.2 K	104.2
313.1 K	48.15
323.1 K	27.31

CCCOC(C)=O + O=S1(=O)CCCC1
101 kPa
Conditions	viscosity [mPa·s]
303.15 K, x1 = 0.0177	9.305
308.15 K, x2 = 0.6489	2.375
313.15 K, x2 = 0.7639	3.185

ClC(Cl)(Cl)Cl + O=S1(=O)CCCC1
viscosity [mPa·s], 101.33 kPa
Conditions	303.15 K	313.15 K	323.15 K
x2 = 0.066	1.002	0.8675	0.7607
x2 = 0.1374	1.243	1.062	0.9177
x2 = 0.2048	1.532	1.286	1.098
x2 = 0.3138	2.043	1.691	1.425
x2 = 0.3838	2.392	1.974	1.658
x2 = 0.4188	2.589	2.133	1.79
x2 = 0.4879	3.046	2.498	2.082
x2 = 0.5667	3.682	2.982	2.47
x2 = 0.6334	4.338	3.481	2.855
x2 = 0.705	5.162	4.107	3.348
x2 = 0.7743	6.124	4.817	3.9
x2 = 0.8473	7.286	5.711	4.571
x2 = 0.8955	8.168	6.367	5.053

ClC(Cl)(Cl)Cl + O=[N+]([O-])c1ccccc1
101 kPa
Conditions	viscosity [mPa·s]
298.15 K, x1 = 0.17	1.613
298.15 K, x1 = 0.35	1.411
298.15 K, x1 = 0.55	1.224
298.15 K, x1 = 0.76	1.099
303.15 K, x2 = 0.0951	0.8421
303.15 K, x2 = 0.1913	0.8672
303.15 K, x2 = 0.2891	0.8934
303.15 K, x2 = 0.3875	0.9219
303.15 K, x2 = 0.4865	0.9908
303.15 K, x2 = 0.5871	1.059
303.15 K, x2 = 0.6886	1.159
303.15 K, x2 = 0.7915	1.25
303.15 K, x2 = 0.8947	1.436

CCN(CC)CC + OCCO
101 kPa
Conditions	viscosity [mPa·s]
296.95 K, x1 = 0.143	16.28
297.85 K, x1 = 0.268	9.85
297.85 K, x1 = 0.514	2.7
297.85 K, x1 = 0.789	0.704
301.85 K, x1 = 0.143	13.5
302.85 K, x1 = 0.268	7.9
302.85 K, x1 = 0.789	0.644
306.45 K, x1 = 0.143	11.7
307.85 K, x1 = 0.268	6.79
307.85 K, x1 = 0.514	2.05
307.85 K, x1 = 0.789	0.589
312.95 K, x1 = 0.268	5.7
312.95 K, x1 = 0.514	1.79
312.95 K, x1 = 0.789	0.543
313.45 K, x1 = 0.143	9.46
317.75 K, x1 = 0.268	4.91
317.75 K, x1 = 0.514	1.61
317.75 K, x1 = 0.789	0.514
320.45 K, x1 = 0.143	7.64
322.75 K, x1 = 0.268	4.18
322.75 K, x1 = 0.514	1.45

CC1CCCCC1O (configuration not stated) + c1ccccc1
293.15 K, 101 kPa
Conditions	viscosity
x2 = 0.33	3.2 mPa·s
x2 = 0.5	1.8 mPa·s
x2 = 0.6	1.5 mPa·s
x2 = 0.7	1.3 mPa·s
x2 = 0.8	1.1 mPa·s and 1 mPa·s

CCCC(C)=O + c1ccccc1
303.15 K, 101.32 kPa
Conditions	viscosity [mPa·s]
x2 = 0.1304	0.469
x2 = 0.2771	0.475
x2 = 0.3294	0.484
x2 = 0.4869	0.499
x2 = 0.6257	0.515
x2 = 0.6946	0.522
x2 = 0.7707	0.532
x2 = 0.9042	0.553

CCCOC(C)=O + c1ccccc1
Conditions	viscosity [mPa·s]
298.15 K, 101.3 kPa, x2 = 0.246	0.537
298.15 K, 101.3 kPa, x2 = 0.4714	0.537
298.15 K, 101.3 kPa, x2 = 0.6809	0.551
298.15 K, 101.3 kPa, x2 = 0.8404	0.563
303.15 K, 101.33 kPa, x2 = 0.0633	0.514
303.15 K, 101.33 kPa, x2 = 0.1259	0.515
303.15 K, 101.33 kPa, x2 = 0.1865	0.513
303.15 K, 101.33 kPa, x2 = 0.3006	0.512
303.15 K, 101.33 kPa, x2 = 0.4062	0.513
303.15 K, 101.33 kPa, x2 = 0.5133	0.514
303.15 K, 101.33 kPa, x2 = 0.6141	0.517
303.15 K, 101.33 kPa, x2 = 0.7078	0.524
303.15 K, 101.33 kPa, x2 = 0.7972	0.529
303.15 K, 101.33 kPa, x2 = 0.8812	0.539
303.15 K, 101.33 kPa, x2 = 0.9631	0.551
308.15 K, 101.3 kPa, x2 = 0.246	0.477
308.15 K, 101.3 kPa, x2 = 0.4714	0.48
308.15 K, 101.3 kPa, x2 = 0.8404	0.49
313.15 K, 101.33 kPa, x2 = 0.1951	0.448
313.15 K, 101.33 kPa, x2 = 0.4024	0.449
313.15 K, 101.33 kPa, x2 = 0.5082	0.453
313.15 K, 101.33 kPa, x2 = 0.6029	0.455
313.15 K, 101.33 kPa, x2 = 0.8029	0.466

CCN(CC)CC + c1ccccc1
303.15 K, 101 kPa
Conditions	viscosity [mPa·s]
x1 = 0.01024	0.5567
x1 = 0.02091	0.5513
x1 = 0.03113	0.545
x1 = 0.03955	0.5386
x1 = 0.05006	0.5341
x1 = 0.06182	0.5287
x1 = 0.07124	0.5215
x1 = 0.08041	0.5162
x1 = 0.09192	0.5096
x1 = 0.09995	0.5041

ClC(Cl)(Cl)Cl + c1ccncc1
298.15 K, 101 kPa
Conditions	viscosity [mPa·s]
x1 = 0.09	0.9206
x1 = 0.1492	0.9404
x1 = 0.2381	0.9623
x1 = 0.293	0.9729
x1 = 0.37	0.9819
x1 = 0.4337	0.9847
x1 = 0.4561	0.9841
x1 = 0.4972	0.9842
x1 = 0.6006	0.9751
x1 = 0.738	0.9538
x1 = 0.7863	0.943
x1 = 0.8636	0.9286
x1 = 0.9447	0.912

Oc1nc(O)nc(O)n1 + c1ccncc1
Conditions	viscosity [mPa·s]
298.15 K, 101 kPa, x1 = 0.0199	1.038
